The term melting point denotes the temperature of the solid-liquid transition. Turning to `COc1ccc(CNc2n[nH]c(N=CN(C)C)c2C#N)cc1`, the melting point was 147 to 148 °C.

In turn, `Cn1c(SCCCN2CCc3ccc(C(=O)c4ccccc4)cc3C2)nnc1-c1ccccc1` came in with a melting point of 146 to 152 °C.

`O=C(O)CCc1c(Sc2ccccc2)c2cc(F)ccc2n1Cc1ccc(Cl)cc1`: the melting point lay in the range of 138 to 139 °C.

`O=C1c2cc(Br)sc2SCCN1CCCCCl` came in with a melting point of 81 to 89 °C.

Take `CC(C)n1nc(-c2nc(C3=CCN(C)CC3)c(N)nc2-c2ccccc2)ccc1=O`: the melting point was 209 to 211 °C.

For `O=C(CCc1cccc(Oc2ccccc2)c1)c1ccc[nH]1`, the melting point fell in the range of 75 to 76 °C.

The compound `Cc1nc(C)c(CC#N)cc1CC#N` had a melting point of 65 to 67 °C.

As to `COc1ccc(C(=O)C(O)c2ccccc2)cc1` (stereo not drawn), the melting point lay within 99 to 101 °C.

For the compound `COc1ccc(C2=NC[C@@H](OC(=O)Nc3ccccc3)[C@H](c3ccccc3)O2)cc1` (racemic), the melting point was found to be 132 °C.

With `N#Cc1c[nH]c(-c2ccc(Cl)cc2)c1`, the melting point is 174 to 175 °C.

On to `CCOC(=O)c1cc(C(=O)OCC)c(=O)[nH]c1C`, for which the melting point is 195 to 197 °C.

In turn, `O=C(N[C@H](Cc1cccc(Oc2ccccc2)c1)[C@@H](O)c1ccc(F)cc1)c1ccc(F)c2ccccc12` (racemic) displayed a melting point of 120 to 121 °C.

In turn, `O=C1c2cccc([N+](=O)[O-])c2C(=O)c2cccc(O)c21` had a melting point of 299 to 302 °C.

In the case of `CC(C)(C)C(=O)C(Cl)Oc1ccc(-c2ccccc2)cc1` (stereo not drawn), the melting point is 185 to 190 °C.

In turn, `CCOC(=O)c1ccc(NC(=O)NCCN2CCN=C2c2ccncc2)cc1` had a melting point of 120 °C.

Compound `COc1ccc(-c2c(Cl)c(CN3C(=O)CCC3=O)nc3sc4c(c23)CCC(C(=O)O)C4)cc1` (stereo not drawn) returned a melting point of 258 to 259 °C.

With `CCOC(=O)CCCOc1cccc2c1SCCC2`, the melting point was found to be 31 °C.

In the case of `Nc1cc(C(c2c(F)ccc(F)c2F)S(=O)(=O)CCC(F)(F)F)c(Cl)cn1` (stereo not drawn), the melting point was in the range of 155 to 159 °C.

Consider `CS(=O)(=O)c1cccc(NC(=O)c2cnn3ccc(-c4ccc(C(F)(F)F)cc4)nc23)c1`, for which the melting point was in the range of 254 to 255 °C.

The compound `Cc1[nH]c2cccc(/C=C/C(=O)OCc3ccccc3)c2c1Cc1cccnc1` displayed a melting point of 180 to 182 °C.

Take `O=c1n(-c2cc(OCCCl)c(Cl)cc2Cl)nc2n1CCCC2`: the melting point was in the range of 148 to 150 °C.

On to `C[C@]1(COC(=O)N2CCN(N=Cc3ccc(C(F)(F)F)cc3)CC2)Cn2cc([N+](=O)[O-])nc2O1`, for which the melting point was 176 to 178 °C.

Compound `Cn1cc(-c2ccc3c(c2)C(C)(C)CCC3(C)C)cc1C=CC(=O)O` came in with a melting point of 165 to 166 °C.

As to `CC(=O)Oc1ccccc1NC(=O)CBr`, the melting point is 79 to 82 °C.

`O=C(c1cccc(Oc2ccccc2)c1)c1cccc(Br)n1` displayed a melting point of 65 to 66 °C.

`CCC=NNC=C(C(=O)OCC)C(=O)c1cc(F)c(F)c(F)c1F` registered a melting point of 86 °C.

As for `CCCCCC(=O)NC[C@H](CC(C)C)NC(=O)[C@H]1O[C@@H]1C(=O)OCC`, the melting point lay within 120 to 121 °C.

For the compound `CCN(C)C(N)=C(C#N)C#N`, the melting point was in the range of 140 to 141 °C.

For `COC(=O)c1c(C(=O)O)nc2cc(Cl)ccc2c1O`, the melting point was determined as 215 °C.

`CCOCc1nc2c(N)nc3ccccc3c2n1CCCc1cc(C)no1` had a melting point of 163 to 164 °C.

As for `CCCCCCCCCCCCCCCCSCC(CNS(=O)(=O)CCCCl)NC(C)=O` (stereo not drawn), the melting point is 86 to 88 °C.

`O=C(Nc1c(F)cc(F)cc1F)N(Cc1cc2ccccc2c2ccccc12)C1CCCCC1` showed a melting point of 122 to 124 °C.

`O=[N+]([O-])c1cc(I)cc(CO)c1` displayed a melting point of 85.5 to 86.5 °C.

As for `COC(=O)C(O)C(CC1CCCCC1)NC(=O)C(Cc1c[nH]cn1)NC(=O)C(CC(=O)N1CCOCC1)Cc1cccc2ccccc12` (mixture of isomers), the melting point is 83 to 87 °C.

`CNC(=S)NCCCc1ncco1`: the melting point was in the range of 43 to 45 °C.

In the case of `O=Cc1ccccc1-c1nc2ccccc2o1`, the melting point lay in the range of 117 to 120 °C.

In turn, `CCn1cc(C(=O)O)c(=O)cc1-c1ccc(OC)cc1` came in with a melting point of 215 to 217 °C.

In the case of `Oc1ccc2c(c1)CCCC(c1ccccc1)=C2c1ccc(OCCCl)cc1`, the melting point was in the range of 238 to 240 °C.

Compound `Cc1cc(Cl)ccc1N=Cc1ccc(Cl)cc1` registered a melting point of 75 to 76 °C.

Compound `COc1ccc(OC)c(NC(=O)Cc2ccccc2)c1` came in with a melting point of 85 °C.

For `CCN1c2ncc(CCc3cccc(I)c3)cc2C(=O)N(C)c2ccc(Cl)nc21`, the melting point lay in the range of 143 to 145 °C.

Turning to `CN1C[C@@H]2c3cc(Cl)ccc3Oc3ccccc3[C@H]2C1=O` (relative stereo), the melting point came out at 148 °C.

Compound `CC(C)N(C(=O)CN1C(=O)C(NC(=O)Nc2ccccc2)C(=O)N(c2ccccc2)c2ccccc21)c1ccccc1` (stereo not drawn) showed a melting point of 230 to 235 °C.

On to `Nc1c(SC(F)(F)F)nc(Cl)n1-c1c(Cl)cc(C(F)(F)F)cc1Cl`, for which the melting point worked out at 172 °C.

`CS(=O)(=O)N[C@@H](CCCCNC=O)C(=O)NC[C@H](CC1(C(=O)N[C@@H](Cc2ccc(O)cc2)C(=O)O)CCCC1)C(=O)O` registered a melting point of 56 to 60 °C.

For the compound `CCCCCCCNC(=O)Nc1ccccc1C(=O)NC1CCN(Cc2ccccc2)CC1`, the melting point amounted to 134 °C.

For `CC(C)OCC1(C(C)(F)F)c2cc(C#N)ccc2Nc2ncccc21` (stereo not drawn), the melting point is 134 to 135 °C.

The compound `N#Cc1ccc(-c2ccc(-c3ccc(C#N)cn3)o2)cc1` gave a melting point of 301 to 302 °C.

On to `C=C1CC(COc2ccc3c(C)c(Cl)c(=O)oc3c2)(c2ccccc2)OC1=O` (stereo not drawn), for which the melting point was in the range of 149 to 150 °C.

The compound `CCCCn1c(C)c(C(=O)c2ccccc2C(=O)O)c2ccccc21` showed a melting point of 88 to 92 °C.

As for `COC(=O)CCc1ccc(C(=C2CC(C)(C)CC(C)(C)C2)c2ccc(O)cc2)cc1`, the melting point was 129 to 130 °C.

As for `CNc1nc(-c2ccccc2)c(-c2ccc(=O)n(C(C)C)n2)s1`, the melting point is 234 to 236 °C.

In turn, `CCOC(=O)Cc1c(C(=O)OCC)c(C)cn1CCO` gave a melting point of 133 to 135 °C.

In turn, `Cc1cc(C(=O)O)ccc1NC(=O)C(CS)Cc1ccccc1` (stereo not drawn) showed a melting point of 217 to 218 °C.

`Cc1ccc(NC(=O)c2cccc(CN3C(=O)C4(COc5cc6c(cc54)CCO6)c4ccccc43)c2)c(C)c1` (stereo not drawn) returned a melting point of 234 to 235 °C.

Turning to `O=[N+]([O-])c1ccc(Oc2ccc(O)c(Cl)c2Cl)cc1`, the melting point lay in the range of 147 to 150 °C.

`O=Cn1cc(Cl)c(-c2cccc(Cl)c2Cl)c1`: the melting point fell in the range of 130 to 131 °C.

`CC(C)(SC(F)(F)F)C(O)C(Oc1ccc(Cl)cc1)n1cncn1` (stereo not drawn) yielded a melting point of 85 to 87 °C.

As to `CC(C)n1c(=O)n(C(=O)NCC2CCN(CC3(C(=O)O)CCCCC3)CC2)c2ccccc21`, the melting point was 151 °C.

`O=C(c1ccc(F)cc1)C1CCN(CC(O)c2cc(Br)no2)CC1` (stereo not drawn) yielded a melting point of 132 to 135 °C.

Regarding `Cc1cccc(C(=O)N2CCC3(CC2)CSC2=C(O3)c3ccccc3C(=O)C2=O)c1`, the melting point was in the range of 188 to 190 °C.

`COc1ccccc1CNc1nccc2ccccc12` gave a melting point of 111 to 113 °C.

`O=C(Cl)Cc1ccc(-c2ccc(F)cc2F)c(F)c1` displayed a melting point of 70 to 73 °C.

`O=C(Nc1ccc(C(F)(F)F)cc1)c1cc(-c2ccc(F)cc2F)ccc1O` showed a melting point of 227 to 228 °C.

Consider `COC[C@@H](N)C(=O)N(O)C(=O)OC(C)(C)C`, for which the melting point is 83 to 85 °C.

With `Cc1ncc(C(=O)NCc2cc(C(F)(F)F)cc(C(F)(F)F)c2)c(-c2ccccc2)n1`, the melting point was in the range of 188 to 190 °C.

As for `CCOC(=O)C(Cc1ccc(OCc2ccccc2)cc1)OS(C)(=O)=O` (stereo not drawn), the melting point fell in the range of 81 to 83 °C.

The compound `CCOC(=O)CCc1ccc(C2COc3c(C)c(C)c(NC(=O)CC(C)(C)C)c(C)c32)cc1` (stereo not drawn) displayed a melting point of 103 to 105 °C.

The compound `CC(C)Cc1nc(-c2ccccc2)cnc1NN` had a melting point of 109 to 110 °C.

`NC(=O)CCC/C=C\[C@@H]1C[C@@H](NS(=O)(=O)c2ccc(Cl)cc2)CN1S(=O)(=O)c1ccc(Cl)cc1` came in with a melting point of 142 to 143 °C.

`COc1cc(C=O)ccc1OCC#CI` returned a melting point of 121 to 127 °C.

For `Clc1ccc(-n2ncc3c2-c2ccccc2C3)cc1`, the melting point lay in the range of 128 to 129 °C.

The compound `Fc1cccc2c1CN(C1=NCCO1)C2` came in with a melting point of 125 to 129 °C.

`CCCCSc1ccc(/C=C\C(C)=O)cc1[N+](=O)[O-]` gave a melting point of 100 °C.

`COc1cccc(OC)c1-c1cc(C(=O)NC2(C(=O)O)C3CCCC2CCC3)nn1-c1ccc(C(=O)N(C)CCCN(C)C)cc1C(C)C` (stereo not drawn): the melting point came out at 160 °C.

For `Cc1ccccc1OCCC(=O)N(C)c1ccccc1`, the melting point was found to be 76 °C.

For `O=C(Nc1nc(C(Cl)(Cl)Cl)ns1)c1cccc([N+](=O)[O-])c1`, the melting point amounted to 198 °C.

`COC(=O)c1cc(OC)nc(C)n1`: the melting point was in the range of 90 to 93 °C.

As to `C=Cc1ccc(C(=O)O)cc1C12CC3CC(CC(C3)C1)C2`, the melting point was 315 to 317 °C.

On to `COc1cc(-c2ncsc2-c2ccc(C(F)(F)F)cc2)cc(OC)c1OC`, for which the melting point is 110 to 113 °C.

Consider `CCOCOc1ccc(-c2ccc(C(F)(F)F)cc2)cc1Sc1cc(-c2ccc(C(F)(F)F)cc2)ccc1OCOCC`, for which the melting point fell in the range of 61 to 62 °C.

Consider `CC(C)(C)OC(=O)C1CC(c2ccc(N)cc2)CCN1` (stereo not drawn), for which the melting point was in the range of 114 to 116 °C.

On to `COc1ccc(N2CCN(c3c(C)c(C)c4c(c3C)C(O)(c3ccc(N(C)C)cc3)C(C)(C)O4)CC2)cc1` (stereo not drawn), for which the melting point fell in the range of 144 to 146 °C.

Compound `Cc1c(CCN(C)C(=O)OC(C)(C)C)c2cc(S(=O)(=O)c3cccc4ccccc34)ccc2n1C` came in with a melting point of 176 to 178 °C.

Turning to `O=C(NNc1ccc(Br)cc1)c1c(F)cccc1F`, the melting point worked out at 172 °C.

The compound `CN1CC(CNN)CC2c3cccc4c3c(cn4C)CC21` (stereo not drawn) returned a melting point of 102 to 103 °C.

As for `O=C(Nc1ccc(-n2nc(C(F)(F)F)cc2C(F)(F)F)cc1)c1ccccc1C(=O)c1ccccc1`, the melting point is 204 to 205 °C.

In turn, `O=C(O)C1CCCc2c(-c3ccc(Cl)cc3)noc2CC1` (stereo not drawn) yielded a melting point of 147 to 150 °C.

These data come from a melting point compilation (Tetko et al.; mined from patent text by program, amines drawn as free bases though some values may be those of a salt).
